Measurements published in PubChem BioAssay (NCI).
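Tested at 5 concentrations; 48 h exposure; 96-well plates; endpoints linearly interpolated, else capped at highest concentration. TGI: total growth inhibition.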

Tests used:
Test in all cases: NCI tumour cell line growth inhibition, 48 h
A549 NSCLC = tested on: A549 NSCLC
CAKI-1 renal = tested on: CAKI-1 renal
BT-549 breast = tested on: BT-549 breast
SK-MEL-28 melanoma = tested on: SK-MEL-28 melanoma
A498 renal = tested on: A498 renal
U251 CNS = tested on: U251 CNS
OVCAR-5 ovarian = tested on: OVCAR-5 ovarian
HS 578T breast = tested on: HS 578T breast
OVCAR-3 ovarian = tested on: OVCAR-3 ovarian
HCT-116 colon = tested on: HCT-116 colon

Row | SMILES | TGI (A549 NSCLC) [µM] | TGI (CAKI-1 renal) [µM] | TGI (BT-549 breast) [µM] | TGI (SK-MEL-28 melanoma) [µM] | TGI (A498 renal) [µM] | TGI (U251 CNS) [µM] | TGI (OVCAR-5 ovarian) [µM] | TGI (HS 578T breast) [µM] | TGI (OVCAR-3 ovarian) [µM] | TGI (HCT-116 colon) [µM]
1 | O=C(NNC(=O)c1ccco1)c1ccco1 | > 100 | > 100 | > 100 | > 100 | > 100 | > 100 | > 100 | > 100 | > 100 | > 100
2 | S=C(NCc1ccccn1)N/N=C/c1ccccn1 | 1.46 | 4.33 |  | > 100 |  | > 60.2 | > 100 | 70.1 | > 100 | < 0.01
3 | Nc1nc(N)c2nc(CN(C=O)c3ccc(C(=O)O)cc3)cnc2n1 | > 100 | > 100 | > 94.7 | > 100 | > 79.9 | > 100 | > 100 | > 100 | > 100 | > 100
4 | Cc1ccc(C(=O)N/N=C(\N=Nc2ccc([N+](=O)[O-])cc2)c2ccc(N(CCC#N)CCC#N)cc2C)cc1 | > 100 | > 100 | > 100 | > 100 | > 100 | > 100 | > 100 | > 100 | > 100 | > 100
5 | CC1(C)N=C(C(N)=O)c2[nH]cnc2N1 | > 100 | > 100 |  | > 100 | > 100 | > 100 | > 100 | > 100 | > 100 | > 100
6 | O=C1NC(N2CCCC(CO)C2)=N/C1=C\c1cccs1 (stereo not drawn) | > 100 | > 100 | > 100 | > 100 |  | > 100 | > 100 | > 100 | > 100 | > 100
7 | Cc1ccc(/C=c2\cc3oc(=O)c4cccc(c4-3)c2=O)cc1 |  | > 100 |  | > 100 | > 100 | > 100 | > 100 |  | > 100 | > 100
8 | C=CCOCC1C2CCC3(OCCO3)C21 (stereo not drawn) | > 100 | 87.5 | > 100 | > 100 |  | > 100 | > 100 |  | > 100 | > 100
9 | CNC(=O)[C@H](Cc1ccccc1)NC(=O)N(CCC#N)CCN(C(=O)N[C@@H](Cc1ccccc1)C(=O)OC)c1ccccc1 | > 100 | > 100 | > 100 | > 100 | > 100 | > 100 | > 100 | > 100 | > 100 | > 100
10 | CSc1c(C(C)=O)c(O)n(-c2ccc(C)cc2)c(=O)c1C#N | > 100 | > 100 | > 100 | > 100 | > 100 | > 100 | > 100 | > 100 | > 100 | > 100
11 | O=C(/C=C/c1ccc(OCc2ccccc2)cc1)NCc1ccc(C(=O)NCCc2ccccc2)cc1 | > 100 | > 100 | > 100 | > 100 | > 100 | > 100 | > 100 | > 100 | > 100 | > 100
12 | CCOC(=O)C(O)(CC1=NC(C(=O)OC)(C(=O)OC)C(c2cccc(C=O)c2)O1)C(=O)OCC (stereo not drawn) | > 100 | > 100 | > 100 | > 100 | > 100 | > 100 | > 100 |  | > 100 | > 100
13 | CC(C)(C)OC(=O)Cn1ncn(NC(=O)Cc2ccccc2)c1=S | > 10 | > 10 | > 10 | > 10 | > 10 | > 10 | > 10 | > 10 | > 10 | > 10
14 | O=C1Cc2cc3ccccc3nc2-c2ccccc2N1 | > 100 | > 100 | > 100 | > 100 | > 100 | > 100 | > 100 | > 100 | > 100 | 62.2
15 | NC(=S)NNCC(=O)CC(O)(C(F)(F)F)C(F)(F)Cl (stereo not drawn) | > 100 | > 100 | > 100 | > 100 | > 100 | > 100 | > 100 | > 100 | > 100 | > 100
16 | OC12CCC3(OC4CCCCO4)c4ccccc4C3C1c1ccccc12 (stereo not drawn) | > 100 |  |  | > 100 |  | > 100 |  |  |  | > 100
17 | CCCOC(=O)c1cc(O)c(O)c(O)c1 | > 100 | > 100 | > 100 | > 100 | > 100 | > 100 | > 100 | > 100 | 79.8 | 45.3
18 | CC(=O)OC1CCn2c1nc1cc([N+](=O)[O-])c(C)cc12 (stereo not drawn) | > 100 | > 100 | > 100 | > 100 | > 100 | > 100 |  | > 100 | > 100 | > 100
19 | COc1cccc(NC(=O)CC(=O)NN)c1 | > 100 | > 100 | > 100 | > 100 | > 100 | > 100 | > 100 | > 100 | > 100 | > 100
20 | Oc1c(Br)cc2c(c1Br)-c1c(c(O)c3c4c1=NCCC=4C=N3)NCC2 | > 80.8 | 42.2 |  | 32.5 | 45.7 | 24.5 | 40.2 |  | 8.47 | 28.8
21 | COC1OC2COC(=O)c3cc(O)c(O)c(O)c3-c3c(cc(O)c(O)c3O)C(=O)OC2C(O)C1O (stereo not drawn) | > 100 | > 100 | > 100 | > 100 |  | > 100 | > 100 | > 100 | > 100 | > 100
22 | C[C@]12CC[C@H]3[C@@H](CC=C4C[C@@H](O)CC[C@@]43C)[C@@H]1C/C(=C\c1cccnc1)[C@@H]2O | > 100 |  | 48.9 | > 100 | 42.9 | 28.7 | > 100 | 33.3 |  | > 100
23 | O=c1c(-c2nc3ccccc3c3ccccc3c2=O)nc2ccccc2c2ccccc12 | > 100 | > 100 | > 100 | > 100 | > 100 | 60.3 | > 100 | > 100 | 97.3 | 71.6
